Measured values as given in EP1144369B1 (Wyeth Holdings Corporation, priority 1999, dated 2000).

How the values were obtained:
[1] = target: MMP-13 (Homo sapiens, UniProt P45452); assay: MMP-13 inhibition (thiopeptide or fluorescent peptide substrate); type: biochemical
Procedure: (§1) The enzyme activity is measured by the rate of the color increase. The thiopeptide substrate is made up fresh as a 20 mM stock in 100% DMSO and the DTNB is dissolved in 100% DMSO as a 100 mM stock and stored in the dark at room temperature. Both the substrate and DTNB are diluted together to 1 mM with substrate buffer (50 mM HEPES pH 7.5, 5 mM CaCl2) before use. The stock of enzyme is diluted with buffer (50 mM HEPES, pH 7.5, 5 mM CaCl2, 0.02% Brij) to the desired final concentration.
(§2) Alternatively, a fluorescent peptide substrate is used. In this test procedure, the peptide substrate contains a fluorescent group and a quenching group. Upon cleavage of the substrate by an MMP, the fluorescence that is generated is quantitated on the fluorescence plate reader. The assay is run in HCBC assay buffer (50mM HEPES, pH 7.0, 5 mM Ca^+2, 0.02% Brij, 0.5% Cysteine), with human recombinant MMP-1, MMP-9, or MMP-13. The substrate is dissolved in methanol and stored frozen in 1 mM aliquots. For the assay, substrate and enzymes are diluted in HCBC buffer to the desired concentrations. Compounds are added to the 96 well plate containing enzyme and the reaction is started by the addition of substrate.
(§3) For either the thiopeptide or fluorescent peptide test procedures, the slope of the line is calculated and represents the reaction rate. The linearity of the reaction rate is confirmed (r^2 >0.85). The mean (x±sem) of the control rate is calculated and compared for statistical significance (p<0.05) with drug-treated rates using Dunnett's multiple comparison test.

[2] = target: MMP-9 (Homo sapiens, UniProt P14780); assay: MMP-9 inhibition (thiopeptide or fluorescent peptide substrate); type: biochemical
Procedure: as §1, §2, §3

[3] = system: THP-1 cells; assay: THP-1 soluble protein assay (LPS-stimulated human monocytic THP-1 cells); type: cell-based; conditions: Homo sapiens, LPS-stimulated THP-1 cells, read-out: % Inhib. @ 3µM THP
From the text: Mitogenic stimulation of THP-1 cells cause differentiation into macrophage like cells with concomitant secretion of tumor necrosis factor (TNF-a) and TNF receptor (TNF-R p75/80 and TNF-R p55/60) and Interleukin-8 (IL-8), among other proteins. In addition, non-stimulated THP-1 cells shed both the p75/80 and the p55/60 receptors over time. The release of membrane bound TNF-α and possibly TNF-R p75/80 and TNF-R p55/60, but not IL-8, is mediated by an enzyme called TNF-a converting enzyme or TACE.
THP-1 cells (from ATCC) are a human monocytic cell line which were obtained from the peripheral blood of a person with acute monocytic leukemia. They can be grown in culture and differentiated into macrophage like cells by stimulation with mitogens.
Each vial of cells are cultured for about two weeks prior to being used for an assay and then are used for only 4 to 6 weeks to screen compounds.
Cell exposure to DMSO was limited to 0.1 % final concentration. […] Compounds can be evaluated for their effect on basal (non-stimulated) shedding of the receptors by replacing the LPS with […] of THP-1 media. Plates are placed into an incubator set at 5% CO2 and at 37°C. After 4 hours of incubation, […] of tissue culture supernatant (TCS) is removed for use in an TNF-a ELISA. Following 24 hours of incubation, […] of TCS is removed and used for analysis in TNF-R p75/80, TNF-R p55/60 and IL-8 ELISAs.
In addition, at the 24 hours timepoint, and the cells for each treatment group are collected by resuspension in 500 µl/well of THP-1 media and transferred into a FACS tube. […] The samples are run on a Becton Dickinson FaxCaliber FLOW cytometry machine and the amount of dye taken up by each cell is measured in the high red wavelength (FL3). Only cells with compromised membranes (dead or dying) can take up PI. The percent of live cells is calculated by the number of cells not stained with PI, divided by the total number of cells in the sample. The viability values calculated for the drug treated groups were compared to the viability value calculated for the vehicle treated mitogen stimulated group ("vehicle positive control") to determine the "percent change from control". This "percent change from control" value is an indicator of drug toxicity.
The quantity of soluble TNF-a, TNF-R p75/80 and TNF-R p55/60 and IL-8 in the TCS of the THP-1 cell cultures are obtained with commercially available ELISAs from R&D Systems, by extrapolation from a standard curve generated with kit standards. The number of cells that either take up or exclude PI are measured by the FLOW cytometry machine and visualized by histograms using commercially available Cytologic software for each treatment group including all controls.
Biological variability in the magnitude of the response of THP-1 cell cultures requires that experiments be compared on the basis of percent change from "vehicle positive control" for each drug concentration. Percent change in each soluble protein evaluated from the "vehicle positive control" was calculated for each compound concentration with the following formula: % Change =(pg/ml(compound) - pg/ml (veh pos control))/(pg/ml (veh pos control) - pg/ml(veh neg control))x 100 [formula]
For the soluble protein (TNF-a, p75/80, p55/60, IL-8) studies under stimulated conditions, the mean pg/ml of duplicate wells were determined and the results expressed as percent change from "vehicle positive control". For the soluble protein (p75/80 and p55/60 receptors) studies under non-stimulated conditions, the mean pg/ml of duplicate wells were determined and the results expressed as percent change from "vehicle positive control" utilizing the following formula: % Change =(pg/ml (compound neg control) - pg/ml (veh neg control)/(pg/ml (veh neg control))X 100 [formula]
IC50 values for each compound are calculated by non-linear regression analysis using customized software utilizing the JUMP statistical package.

[4] = target: T1, MMP-1 (Homo sapiens, UniProt P03956); assay: MMP-1 inhibition (thiopeptide or fluorescent peptide substrate); type: biochemical; conditions: for inhibition at 10 µM: read-out: IC50 (nM) or % Inhibition (µM) MMP-1; for IC50: plain number = IC50
T1 sequence (P03956 100-469): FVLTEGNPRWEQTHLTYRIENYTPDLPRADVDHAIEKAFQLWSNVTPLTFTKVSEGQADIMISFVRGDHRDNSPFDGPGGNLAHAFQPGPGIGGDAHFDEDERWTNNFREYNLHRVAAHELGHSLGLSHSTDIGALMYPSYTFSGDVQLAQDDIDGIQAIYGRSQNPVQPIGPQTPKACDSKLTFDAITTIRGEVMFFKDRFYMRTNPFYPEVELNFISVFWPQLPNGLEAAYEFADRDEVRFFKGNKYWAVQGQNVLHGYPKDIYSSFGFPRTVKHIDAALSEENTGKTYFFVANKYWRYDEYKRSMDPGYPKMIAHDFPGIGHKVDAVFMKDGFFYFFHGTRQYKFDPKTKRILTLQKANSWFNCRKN
Procedure: as §1, §2, §3

[5] = target: TNF-α converting enzyme (TACE) (Homo sapiens, UniProt P78536); assay: TACE inhibition (fluorescent peptidyl substrate); type: biochemical; conditions: read-out: IC50 (nM) or % Inhibition (µM) TACE
Procedure: Using 96-well black microtiter plates, each well receives a solution composed of 10 µL TACE (final concentration 1µg/mL), 70µL Tris buffer, pH 7.4 containing 10% glycerol (final concentration 10 mM), and 10 µL of test compound solution in DMSO (final concentration 1µM, DMSO concentration <1%) and incubated for 10 minutes at room temperature. The reaction is initiated by addition of a fluorescent peptidyl substrate (final concentration 100 µM) to each well and then shaking on a shaker for 5 sec.
The reaction is read (excitation 340 nm, emission 420 nm) for 10 min. and the increase in fluorescence over time is plotted as a linear line. The slope of the line is calculated and represents the reaction rate.
The linearity of the reaction rate is confirmed (r^2 >0.85). The mean (x±sem) of the control rate is calculated and compared for statistical significance (p<0.05) with drug-treated rates using Dunnett's multiple comparison test.

Chain of MMP-9 (P14780 94-707): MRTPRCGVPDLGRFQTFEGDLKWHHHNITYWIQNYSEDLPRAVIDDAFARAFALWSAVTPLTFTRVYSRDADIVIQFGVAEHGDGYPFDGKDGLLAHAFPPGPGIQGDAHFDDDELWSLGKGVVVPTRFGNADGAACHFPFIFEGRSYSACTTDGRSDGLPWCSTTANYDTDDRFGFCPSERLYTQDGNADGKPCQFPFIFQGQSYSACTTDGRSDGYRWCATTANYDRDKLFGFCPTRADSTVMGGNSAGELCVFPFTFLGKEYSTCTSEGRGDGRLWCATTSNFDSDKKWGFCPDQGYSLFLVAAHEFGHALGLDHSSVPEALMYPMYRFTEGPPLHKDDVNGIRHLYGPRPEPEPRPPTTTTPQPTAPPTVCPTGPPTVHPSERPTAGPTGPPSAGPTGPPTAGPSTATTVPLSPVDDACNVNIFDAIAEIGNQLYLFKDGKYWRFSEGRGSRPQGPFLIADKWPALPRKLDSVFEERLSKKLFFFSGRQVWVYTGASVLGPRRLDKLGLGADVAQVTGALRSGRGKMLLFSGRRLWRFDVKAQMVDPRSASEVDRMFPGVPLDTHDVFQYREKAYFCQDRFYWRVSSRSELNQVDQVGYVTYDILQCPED
Chain of TNF-α converting enzyme (TACE) (P78536 215-824, species assumed): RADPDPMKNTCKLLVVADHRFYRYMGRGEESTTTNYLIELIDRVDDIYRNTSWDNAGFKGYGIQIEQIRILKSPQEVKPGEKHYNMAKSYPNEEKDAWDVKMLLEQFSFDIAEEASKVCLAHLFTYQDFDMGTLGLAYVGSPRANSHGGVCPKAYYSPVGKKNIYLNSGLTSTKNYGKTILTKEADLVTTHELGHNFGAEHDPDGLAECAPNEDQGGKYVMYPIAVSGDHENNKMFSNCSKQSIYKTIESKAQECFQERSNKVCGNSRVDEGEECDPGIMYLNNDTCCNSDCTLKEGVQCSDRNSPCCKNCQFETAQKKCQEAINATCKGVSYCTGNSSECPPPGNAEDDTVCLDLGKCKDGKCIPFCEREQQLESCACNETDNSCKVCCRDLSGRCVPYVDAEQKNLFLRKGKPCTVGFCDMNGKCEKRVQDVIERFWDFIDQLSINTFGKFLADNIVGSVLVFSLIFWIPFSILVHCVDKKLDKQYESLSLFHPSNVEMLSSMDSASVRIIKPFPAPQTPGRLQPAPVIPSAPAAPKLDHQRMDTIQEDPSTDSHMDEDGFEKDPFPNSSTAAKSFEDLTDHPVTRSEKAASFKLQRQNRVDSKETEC

Structure (SMILES)	IC50 [1] [nM]	IC50 [2] [nM]	inhibition at 3 µM [3] [%]	inhibition at 10 µM [4] [%]	IC50 [5] [nM]	IC50 [4] [nM]
Cc1cc(Br)cc(C(=O)NO)c1N(C)S(=O)(=O)c1ccc(OCC#CCOC2CCCCO2)cc1 (centres unmarked) [Example 69, 5-Bromo-N-hydroxy-3-methyl-2-(methyl-{4-[4-(tetrahydro-pyran-2-yloxy)-but-2-ynyloxy]-benzenesulfonyl}-amino)-benzamide]	177	396	19	25	30	–
CCCCC#CCOc1ccc(S(=O)(=O)N(C)c2c(C)cc(Br)cc2C(=O)NO)cc1 [Example 56, 5-Bromo-2-[(4-hept-2-ynyloxy-benzenesulfonyl)-methyl-amino]-N-hydroxy-3-methyl-benzamide]	701	389	16	53	–	–
CNCC#CCOc1ccc(S(=O)(=O)N(C)c2c(C)cc(Br)cc2C(=O)NO)cc1 [Example 32, 5-Bromo-N-hydroxy-3-methyl-2-{methyl-[4-(4-methylamino-but-2-ynyloxy)-benzenesulfonyl]-amino}-benzamide]	255	643	15	26	58	–
CC#CCOc1ccc(S(=O)(=O)N(Cc2ccccc2)c2c(C)cc(C)cc2C(=O)NO)cc1 [Example 64, 2-[Benzyl-(4-but-2-ynyloxy-benzenesulfonyl)-amino]-N-hydroxy-3,5-dimethyl-benzamide]	312	830	48	–	105	1190
Cc1cc(Br)cc(C(=O)NO)c1N(C)S(=O)(=O)c1ccc(OCC#CCO)cc1 [Example 70, 5-Bromo-N-hydroxy-2-{[4-(4-hydroxy-but-2-ynyloxy)-benzenesulfonyl]-methyl-amino}-3-methyl-benzamide]	83	477	88	–	–	3200
C#CC(C)Oc1ccc(S(=O)(=O)N(C)c2c(C)cc(Br)cc2C(=O)NO)cc1 (centres unmarked) [Example 79, 5-Bromo-N-hydroxy-3-methyl-2-{methyl-[4-(1-methyl-prop-2-ynyloxy)-benzenesulfonyl]-amino}-benzamide]	433	455	9	–	122	1530
COc1ccc(C#CCOc2ccc(S(=O)(=O)N(C)c3c(C)cc(Br)cc3C(=O)NO)cc2)cc1 [Example 62, 5-Bromo-N-hydroxy-2-({4-[3-(4-methoxy-phenyl)-prop-2-ynyloxy]-benzenesulfonyl}-methyl-amino)-3-methyl-benzamide]	588	901	15	–	104	3600
CCN(CC)CC#CCOc1ccc(S(=O)(=O)N(C)c2c(C)cc(Br)cc2C(=O)NO)cc1 [Example 66, 5-Bromo-2-{[4-(4-diethylamino-but-2-ynyloxy)-benzenesulfonyl]-methyl-amino}-N-hydroxy-3-methyl-benzamide]	2380	2830	5	21	346	–
CC#CCOc1ccc(S(=O)(=O)N(C)c2c(C)cc(-c3ccccc3)cc2C(=O)NO)cc1 [Example 43, 4-[(4-But-2-ynyloxy-benzenesulfonyl)-methyl-amino]-5-methyl-biphenyl-3-carboxylic acid hydroxyamide]	518	578	76	–	135	4240
CCC#CCOc1ccc(S(=O)(=O)N(C)c2c(C)cc(Br)cc2C(=O)NO)cc1 [Example 55, 5-Bromo-N-hydroxy-3-methyl-2-[methyl-(4-pent-2-ynyloxy-benzenesulfonyl)-amino]-benzamide]	289	800	48	–	12	1230
Cc1cc(Br)cc(C(=O)NO)c1N(C)S(=O)(=O)c1ccc(OCC#Cc2ccccc2)cc1 [Example 59, 5-Bromo-N-hydroxy-3-methyl-2-{methyl-[4-(3-phenyl-prop-2-ynyloxy)-benzenesulfonyl]-amino}-benzamide]	321	857	20	–	66	–
COc1ccc(S(=O)(=O)N(C)c2c(C)cc(Br)cc2C(=O)NO)cc1 [Example 36, 5-Bromo-N-hydroxy-2-[(4-methoxy-benzenesulfonyl)-methyl-amino]-3-methyl-benzamide]	21	11	14	–	–	–
CC#CCOc1ccc(S(=O)(=O)N(C)c2c(C)cc(Br)cc2C(=O)NO)cc1 [Example 54, 5-Bromo-2-[(4-But-2-ynyloxy-benzenesulfonyl)-methyl-amino]-N-hydroxy-3-methyl-benzamide]	154	304	84	–	–	1620
